Among the data in patent US9957251B2 (Takeda Pharmaceutical Company Limited, priority 2014, dated 2018) are inhibition values, retold here.

The target of test [1] is T1, CDK8/CycC (Homo sapiens, UniProt P49336).
T1 construct: purchased Carna Biosciences
In words: CDK8 inhibitory activity (TR-FRET, Kinase Tracer-236 displacement). The following applies: 1 μM of the test compound; read-out: Percent inhibition of CDK8 activity (%). The class given is binding. In outline: (§1)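 Binding assay measuring displacement of Kinase Tracer-236 (60 nM in the added mix) by compound, using Eu-cryptate anti-GST antibody with CDK8/CycC (84 ng/mL) or CDC2L6/CycC (87 ng/mL) solutions. After 1 h at room temperature, TR-FRET read at 615 and 665 nm (excitation 320 nm).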
Background: Time-resolved FRET reads energy transfer from a long-lived donor to a nearby acceptor.

For test [2], the target named is T2, CDK19 (CDC2L6/CycC) (Homo sapiens, UniProt Q9BWU1).
T2 construct: purchased Carna Biosciences
T2 sequence (Q9BWU1 whole entry): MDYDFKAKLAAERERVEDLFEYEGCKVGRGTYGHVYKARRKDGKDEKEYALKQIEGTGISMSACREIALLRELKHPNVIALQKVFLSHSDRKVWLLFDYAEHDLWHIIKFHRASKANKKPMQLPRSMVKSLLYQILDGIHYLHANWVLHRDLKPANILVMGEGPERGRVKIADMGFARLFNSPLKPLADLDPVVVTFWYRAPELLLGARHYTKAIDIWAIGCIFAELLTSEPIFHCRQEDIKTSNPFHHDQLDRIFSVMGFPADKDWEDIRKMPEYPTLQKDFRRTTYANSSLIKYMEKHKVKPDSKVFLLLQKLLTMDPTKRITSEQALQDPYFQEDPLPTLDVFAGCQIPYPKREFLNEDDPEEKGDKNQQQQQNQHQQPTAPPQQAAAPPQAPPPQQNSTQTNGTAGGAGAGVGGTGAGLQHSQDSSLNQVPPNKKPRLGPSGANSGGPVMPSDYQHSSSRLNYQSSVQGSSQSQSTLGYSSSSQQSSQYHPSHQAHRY
T2 sequence (P24863 whole entry partner): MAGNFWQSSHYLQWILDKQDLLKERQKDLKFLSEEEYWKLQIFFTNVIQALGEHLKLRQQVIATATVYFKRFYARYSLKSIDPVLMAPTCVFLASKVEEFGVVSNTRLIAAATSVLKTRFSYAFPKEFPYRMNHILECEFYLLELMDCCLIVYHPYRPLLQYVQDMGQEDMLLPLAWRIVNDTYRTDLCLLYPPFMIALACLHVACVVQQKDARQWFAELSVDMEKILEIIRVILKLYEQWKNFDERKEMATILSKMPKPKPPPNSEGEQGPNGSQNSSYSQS
Description: CDK19 inhibitory activity (TR-FRET, Kinase Tracer-236 displacement). Type of test: binding. Conditions: 1 μM of the test compound; read-out: Percent inhibition of CDK19 activity (%). In outline: as §1

In test [3] the test system is human multiple myeloma RPMI8226 cells. In words: Inhibitory activity against human multiple myeloma RPMI8226 cell growth (CellTiter-Glo). The class given is cell-based. The following applies: Homo sapiens, RPMI-8226, 192 h, 1 μM of the test compound, cultured for 8 days; read-out: Percent inhibition of RPMI8226 cell growth (%). The essentials:
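RPMI8226 cells (300/well) cultured 1 day at 37 °C, 5% CO2, then given compound at 1 μM for 8 days. ATP luminescence (CellTiter-Glo) read; percent inhibition relative to 0.1% DMSO wells.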

By inhibition is commonly meant the change of the read-out against control, counted positive when it falls.

SMILES strings stand for the structures.

T1 sequence (P49336 whole entry): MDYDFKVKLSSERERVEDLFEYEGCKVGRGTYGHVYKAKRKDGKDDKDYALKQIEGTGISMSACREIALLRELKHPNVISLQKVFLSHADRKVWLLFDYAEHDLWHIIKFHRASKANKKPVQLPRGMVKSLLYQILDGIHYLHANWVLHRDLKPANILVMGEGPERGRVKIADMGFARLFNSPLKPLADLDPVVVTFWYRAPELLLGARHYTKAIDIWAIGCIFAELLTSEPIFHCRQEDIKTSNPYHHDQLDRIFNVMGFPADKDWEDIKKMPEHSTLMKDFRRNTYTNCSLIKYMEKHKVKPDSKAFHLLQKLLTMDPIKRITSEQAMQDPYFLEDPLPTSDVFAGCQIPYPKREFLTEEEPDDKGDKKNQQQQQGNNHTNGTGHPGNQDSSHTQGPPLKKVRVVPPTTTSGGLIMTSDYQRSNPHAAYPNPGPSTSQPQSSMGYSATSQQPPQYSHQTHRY
T1 sequence (P24863 whole entry partner): as the sequence (P24863 whole entry partner) above

With `O=C(/C=C/c1cnccc1-c1ccc2ncn(CC3CC3)c2c1)Nc1ccc(CN2CCOCC2)cc1` [Example 283, (2E)-3-(4-(1-(Cyclopropylmethyl)-1H-benzimidazol-6-yl)pyridin-3-yl)-N-(4-(morpholin-4-ylmethyl)phenyl)acrylamide], the figures for the inhibition at 1 µM in test [1], in test [2] and in test [3] were 95%, 96% and 60%, respectively.

As for `Cn1cc(-c2ccncc2/C=C/C(=O)Nc2ccc(CC#N)cc2)cn1` [Example 284, (2E)-N-(4-(cyanomethyl)phenyl)-3-(4-(1-methyl-1H-pyrazol-4-yl)pyridin-3-yl)acrylamide], the values for the inhibition at 1 µM in test [1], in test [2] and in test [3] were 92%, 95% and 57%, respectively.

With `O=C(/C=C/c1cnccc1-c1cnn(CC2(F)CC2)c1)Nc1ccc(CN2CCOCC2)cc1` [Example 288, (2E)-3-(4-(1-((1-Fluorocyclopropyl)methyl)-1H-pyrazol-4-yl)pyridin-3-yl)-N-(4-(morpholin-4-ylmethyl)phenyl)acrylamide], the inhibition at 1 µM in test [1] was determined as 99%; in test [2], 101%; in test [3], 57%.

Turning to `O=C(/C=C/c1cnccc1-c1cnn(C2CC2)c1)Nc1ccc(C2CC2)cc1` [Example 290], the results for the inhibition at 1 µM in test [1], in test [2] and in test [3] were 95%, 89% and 53%, respectively.

Take `O=C(/C=C/c1cnccc1-c1cnn(C2CC2)c1)Nc1ccc(COC(F)F)cc1` [Example 292, (2E)-3-(4-(1-Cyclopropyl-1H-pyrazol-4-yl)pyridin-3-yl)-N-(4-((difluoromethoxy)methyl)phenyl)acrylamide]: the inhibition at 1 µM in test [1] was determined as 97%; in test [2] it was 93%; in test [3], 52%.

On to `CC(C)(F)Cc1ccc(NC(=O)/C=C/c2cnccc2-c2cnn(C3CC3)c2)cc1` [Example 293, (2E)-3-(4-(1-cyclopropyl-1H-pyrazol-4-yl)pyridin-3-yl)-N-(4-(2-fluoro-2-methylpropyl)phenyl)acrylamide], for which the results for the inhibition at 1 µM in test [1], in test [2] and in test [3] were 102%, 95% and 61%, respectively.

In the case of `COCCn1cnc2ccc(-c3ccncc3/C=C/C(=O)Nc3ccc(CN4CCOCC4)cc3)cc21` [Example 295, (2E)-3-(4-(1-(2-methoxyethyl)-1H-benzimidazol-6-yl)pyridin-3-yl)-N-(4-(morpholin-4-ylmethyl)phenyl)acrylamide], the values for the inhibition at 1 µM in test [1], in test [2] and in test [3] were 103%, 97% and 62%, respectively.

Take `Cc1ccc(NC(=O)/C=C/c2cnccc2-c2cn[nH]c2)c(F)c1` [Example 296, (2E)-N-(2-fluoro-4-methylphenyl)-3-(4-(1H-pyrazol-4-yl)pyridin-3-yl)acrylamide]: the inhibition at 1 µM in test [1] was determined as 100%; in test [2] it was 97%; in test [3] it was 59%.

With `Cn1cnc2ccc(-c3ccncc3/C=C/C(=O)Nc3ccc4c(ccn4CC(F)(F)F)c3)cc21` [Example 298, (2E)-3-(4-(1-methyl-1H-benzimidazol-6-yl)pyridin-3-yl)-N-(1-(2,2,2-trifluoroethyl)-1H-indol-5-yl)acrylamide], the inhibition at 1 µM in test [1] is 85%; in test [2] it was 84%; in test [3] it was 63%.

Consider `O=C(/C=C/c1cnccc1-c1cnn(C2CC2)c1)Nc1ccc2c(c1)CN(CC(F)(F)C(F)(F)F)CC2` [Example 300, (2E)-3-(4-(1-cyclopropyl-1H-pyrazol-4-yl)pyridin-3-yl)-N-(2-(2,2,3,3,3-pentafluoropropyl)-1,2,3,4-tetrahydroisoquinolin-7-yl)acrylamide], for which the figures for the inhibition at 1 µM in test [1], in test [2] and in test [3] were 97%, 94% and 57%, respectively.

`O=C(/C=C/c1cnccc1-c1cnn(C2CC2)c1)Nc1ccc(CN2CC3(COC3)C2)cc1` [Example 308, (2E)-3-(4-(1-cyclopropyl-1H-pyrazol-4-yl)pyridin-3-yl)-N-(4-(2-oxa-6-azaspiro [3.3]hept-6-ylmethyl)phenyl)acrylamide]: the values for the inhibition at 1 µM in test [1], in test [2] and in test [3] were 110%, 98% and 56%, respectively.

For the molecule `Cc1noc(C)c1-c1ccc(NC(=O)/C=C/c2cnccc2-c2cnn(C3CC3)c2)c(F)c1` [Example 311, (2E)-3-(4-(1-cyclopropyl-1H-pyrazol-4-yl)pyridin-3-yl)-N-(4-(3,5-dimethyl-1,2-oxazol-4-yl)-2-fluorophenyl)acrylamide], the inhibition at 1 µM came out at 103% in test [1], 98% in test [2] and 58% in test [3].

Consider `O=C(/C=C/c1cnccc1-c1cnn(C2CC2)c1)Nc1ccc2c(c1)CCN(CC(F)(F)F)C2` [Example 316, (2E)-3-(4-(1-Cyclopropyl-1H-pyrazol-4-yl)pyridin-3-yl)-N-(2-(2,2,2-trifluoroethyl)-1,2,3,4-tetrahydroisoquinolin-6-yl)acrylamide], for which the inhibition at 1 µM was found to be 103% in test [1], 98% in test [2] and 49% in test [3].

In the case of `O=C(/C=C/c1cnccc1-c1cnn(C2CC2)c1)Nc1ccc2c(c1)CN(CC(F)(F)F)C2` [Example 319, (2E)-3-(4-(1-Cyclopropyl-1H-pyrazol-4-yl)pyridin-3-yl)-N-(2-(2,2,2-trifluoroethyl)-2,3-dihydro-1H-isoindol-5-yl)acrylamide], the results for the inhibition at 1 µM in test [1], in test [2] and in test [3] were 103%, 101% and 47%, respectively.

Turning to `COC1CN(Cc2ccc(NC(=O)/C=C/c3cnccc3-c3cnn(C4CC4)c3)cc2)C1` [Example 321, (2E)-3-(4-(1-cyclopropyl-1H-pyrazol-4-yl)pyridin-3-yl)-N-(4-((3-methoxyazetidin-1-yl)methyl)phenyl)acrylamide], the values for the inhibition at 1 µM in test [1], in test [2] and in test [3] were 101%, 99% and 59%, respectively.

With `CC1CN(Cc2ccc(NC(=O)/C=C/c3cnccc3-c3cnn(C4CC4)c3)cc2)C1` [Example 322, (2E)-3-(4-(1-cyclopropyl-1H-pyrazol-4-yl)pyridin-3-yl)-N-(4-((3-methylazetidin-1-yl)methyl)phenyl)acrylamide], the figures for the inhibition at 1 µM in test [1], in test [2] and in test [3] were 102%, 97% and 55%, respectively.

As to `Cn1cc(-c2c(F)cncc2/C=C/C(=O)Nc2ccc3c(c2)CN(CC(F)(F)F)C3)cn1` [Example 327, (2E)-3-(5-Fluoro-4-(1-methyl-1H-pyrazol-4-yl)pyridin-3-yl)-N-(2-(2,2,2-trifluoroethyl)-2,3-dihydro-1H-isoindol-5-yl)acrylamide], the inhibition at 1 µM in test [1] came to 106%; in test [2], 104%; in test [3], 56%.

Consider `O=C(/C=C/c1cnccc1-c1cnn(C2CC2)c1)Nc1ccc(COCC(F)(F)F)cc1F` [Example 330, (2E)-3-(4-(1-Cyclopropyl-1H-pyrazol-4-yl)pyridin-3-yl)-N-(2-fluoro-4-((2,2,2-trifluoroethoxy)methyl)phenyl)acrylamide], for which the inhibition at 1 µM is 101% in test [1], 96% in test [2] and 53% in test [3].

On to `O=C(/C=C/c1cncc(F)c1-c1cnn(C2CC2)c1)Nc1ccc2c(c1)OCCO2` [Example 331, (2E)-3-(4-(1-cyclopropyl-1H-pyrazol-4-yl)-5-fluoropyridin-3-yl)-N-(2,3-dihydro-1,4-benzodioxin-6-yl)acrylamide], for which the inhibition at 1 µM in test [1] was determined as 103%; in test [2], 98%; in test [3], 65%.

In the case of `CC(C)(O)Cc1ccc(NC(=O)/C=C/c2cncc(F)c2-c2cnn(C3CC3)c2)c(F)c1` [Example 332, (2E)-3-(4-(1-Cyclopropyl-1H-pyrazol-4-yl)-5-fluoropyridin-3-yl)-N-(2-fluoro-4-(2-hydroxy-2-methylpropyl)phenyl)acrylamide], the figures for the inhibition at 1 µM in test [1], in test [2] and in test [3] were 102%, 99% and 60%, respectively.

On to `O=C(/C=C/c1cncc(F)c1-c1cnn(C2CC2)c1)Nc1ccc(CN2CC3CC(C2)O3)cc1` [Example 336, (2E)-3-(4-(1-Cyclopropyl-1H-pyrazol-4-yl)-5-fluoropyridin-3-yl)-N-(4-(6-oxa-3-azabicyclo[3.1.1]hept-3-ylmethyl)phenyl)acrylamide], for which the results for the inhibition at 1 µM in test [1], in test [2] and in test [3] were 102%, 101% and 59%, respectively.

For `O=C(/C=C/c1cnccc1-c1cnn(C2CC2)c1)Nc1ccc2c(c1)CN(CC(F)(F)CO)C2` [Example 340, (2E)-3-(4-(1-cyclopropyl-1H-pyrazol-4-yl)pyridin-3-yl)-N-(2-(2,2-difluoro-3-hydroxypropyl)-2,3-dihydro-1H-isoindol-5-yl)acrylamide], the figures for the inhibition at 1 µM in test [1], in test [2] and in test [3] were 102%, 96% and 65%, respectively.

For the molecule `Cn1cc(-c2ccncc2/C=C/C(=O)Nc2ccc3c(c2)CN(CC(F)F)C3)cn1` [Example 342, (2E)-N-(2-(2,2-difluoroethyl)-2,3-dihydro-1H-isoindol-5-yl)-3-(4-(1-methyl-1H-pyrazol-4-yl)pyridin-3-yl)acrylamide], the inhibition at 1 µM in test [1] was found to be 105%; in test [2], 94%; in test [3], 63%.
